Laboratory results published in ChEMBL document CHEMBL5625182, “Synthesis and antibacterial activities of baulamycin A inspired derivatives” (Eur J Med Chem, 2023).
Converted amounts (≈) assume the structure as drawn. The source made the active and inactive calls. The calls are words filed in the database; no cut-off is given here.

How the values were obtained:
[1] = target: T1, L-2,3-diaminopropanoate--citrate ligase (Staphylococcus aureus (strain NCTC 8325 / PS 47), UniProt Q2G1M9); assay: Inhibition of Staphylococcus aureus SbnE incubated for 1 hr by malachite green staining based microplate reader analysis
T1 sequence (Q2G1M9 whole entry): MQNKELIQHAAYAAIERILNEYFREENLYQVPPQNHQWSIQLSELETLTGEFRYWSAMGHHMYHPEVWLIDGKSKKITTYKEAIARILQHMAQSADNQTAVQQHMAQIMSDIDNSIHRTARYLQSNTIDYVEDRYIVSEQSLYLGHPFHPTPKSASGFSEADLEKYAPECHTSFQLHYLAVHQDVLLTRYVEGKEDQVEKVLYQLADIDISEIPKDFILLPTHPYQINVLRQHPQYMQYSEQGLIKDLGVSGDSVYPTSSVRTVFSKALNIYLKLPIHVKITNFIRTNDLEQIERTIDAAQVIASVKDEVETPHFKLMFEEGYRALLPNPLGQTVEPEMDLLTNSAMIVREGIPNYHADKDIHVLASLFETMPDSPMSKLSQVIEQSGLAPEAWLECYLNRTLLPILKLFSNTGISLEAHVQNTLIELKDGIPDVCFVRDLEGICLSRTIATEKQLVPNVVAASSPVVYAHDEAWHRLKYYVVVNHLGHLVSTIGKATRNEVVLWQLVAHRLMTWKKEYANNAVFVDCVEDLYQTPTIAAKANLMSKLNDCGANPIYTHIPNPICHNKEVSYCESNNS

Staphylococcus aureus [2] = assay: Antibacterial activity against methicillin resistant Staphylococcus aureus CCARM3167 assessed as inhibition in bacterial growth incubated for 18 hrs by microdilution method; format: functional
Staphylococcus aureus [3] = assay: Antibacterial activity against […] Staphylococcus aureus ATCC25923 assessed as inhibition in bacterial growth incubated for 18 hrs by microdilution method; format: functional
Staphylococcus aureus [4] = assay: Antibacterial activity against methicillin resistance Staphylococcus aureus CCARM3167 assessed as inhibition of siderophore production at 1/4 times MIC incubated for 18 hrs by CAS liquid assay; format: functional, organism-based
Staphylococcus aureus [5] = assay: Antibacterial activity against Staphylococcus aureus ATCC25923 assessed as inhibition of siderophore production at 1/2 times MIC incubated for 18 hrs by CAS liquid assay; format: functional, organism-based
[6] = target: T2, L-2,3-diaminopropanoate--citrate ligase (Staphylococcus aureus (strain NCTC 8325 / PS 47)) (UniProt Q2G1M9); assay: Inhibition of Staphylococcus aureus SbnE at 50 uM incubated for 1 hr by malachite green staining based microplate reader analysis relative to control
T2 sequence (whole entry): T1 sequence (Q2G1M9 whole entry)

Salmonella typhimurium = assay: Antibacterial activity against Salmonella typhimurium ATCC14028 assessed as inhibition of bacterial growth incubated for 18 hrs by microdilution method; format: functional, Salmonella enterica subsp. enterica serovar Typhimurium; details: Salmonella enterica
[7] = Antibacterial activity against Bacillus subtilis ATCC6633 assessed as inhibition of bacterial growth incubated for 18 hrs by microdilution method; format: functional, Bacillus subtilis […]
Escherichia coli = assay: Antibacterial activity against Escherichia coli MC1061 assessed as inhibition of bacterial growth incubated for 18 hrs by microdilution method; format: functional
Cell membrane = assay: Induction of membrane disruption in methicillin resistant Staphylococcus aureus CCARM3167 at MIC incubated for 30 mins PI staining based Flow cytometry
Staphylococcus aureus [8] = assay: Antibacterial activity against quinolone-resistant Staphylococcus aureus CCARM3505 assessed as inhibition of bacterial growth incubated for 18 hrs by microdilution method; format: functional
Bacillus cereus = assay: Antibacterial activity against Bacillus cereus ATCC27348 assessed as inhibition of bacterial growth incubated for 18 hrs by microdilution method; format: functional
Staphylococcus aureus [9] = assay: Antibacterial activity against methicillin resistance Staphylococcus aureus assessed as reduction in biofilm formation at 1/2 times MIC incubated 24 hrs by crystal violet staining based microplate reader analysis; format: functional, organism-based

For `CC(C)C[C@H]([C@H](O)CCNCc1ccccc1)[C@@H](O)c1cc(O)cc(O)c1`, the IC50 [1] was 3.45 µM, the MIC (Staphylococcus aureus [2]) was > 256 µg/mL and the MIC (Staphylococcus aureus [3]) was > 256 µg/mL. For the same molecule, the Activity (Staphylococcus aureus [4]) was “inactive”, the Activity (Staphylococcus aureus [5]) was “inactive” and the inhibition [6] was 97.1%.

With `CC(C)C[C@H]([C@H](O)CCN)[C@@H](O)c1cc(O)cc(O)c1` the IC50 [1] was 1.81 µM, the MIC (Staphylococcus aureus [2]) was > 256 µg/mL and the MIC (Staphylococcus aureus [3]) was > 256 µg/mL. For the same molecule, the Activity (Staphylococcus aureus [4]) was “inactive”, the Activity (Staphylococcus aureus [5]) was “inactive” and the inhibition [6] was 97.2%.

With `C[C@@H](COCc1ccccc1)C[C@H](C)C[C@H](C)C#CC(O)C[C@@H](O)c1cc(O)cc(O)c1` (stereo not given in full) the MIC (Salmonella typhimurium) was > 256 µg/mL, the MIC [7] was > 256 µg/mL and the IC50 [1] was 8.94 µM. For the same molecule, the MIC (Staphylococcus aureus [2]) was 256 µg/mL (≈ 581 µM), the MIC (Staphylococcus aureus [3]) was 128 µg/mL (≈ 291 µM) and the MIC (Escherichia coli) was > 256 µg/mL. For the same molecule, the Activity (Cell membrane) was “Active”, the MIC (Staphylococcus aureus [8]) was 128 µg/mL (≈ 291 µM) and the MIC (Bacillus cereus) was 64 µg/mL (≈ 145 µM). The inhibition [6] was 76.4% and the Activity (Staphylococcus aureus [9]) was “Active”.

For `CC(C)C[C@@H]([C@H](O)C[C@H](O)CCCCCCCCNCc1ccccc1)[C@@H](O)c1cc(O)cc(O)c1`, the MIC (Salmonella typhimurium) was 4 µg/mL (≈ 7.97 µM), the MIC [7] was 4 µg/mL (≈ 7.97 µM) and the IC50 [1] was 41.1 µM. The MIC (Staphylococcus aureus [2]) was 0.5 µg/mL (≈ 0.997 µM), the MIC (Staphylococcus aureus [3]) was 2 µg/mL (≈ 3.99 µM) and the MIC (Escherichia coli) was 0.25 µg/mL (≈ 0.498 µM). For the same molecule, the Activity (Cell membrane) was “Active”, the Activity (Staphylococcus aureus [4]) was “inactive” and the MIC (Staphylococcus aureus [8]) was 0.5 µg/mL (≈ 0.997 µM). For the same molecule, the Activity (Staphylococcus aureus [5]) was “inactive”, the MIC (Bacillus cereus) was 1 µg/mL (≈ 1.99 µM) and the inhibition [6] was 57.9%. For the same molecule, the Activity (Staphylococcus aureus [9]) was “Active”.

With `Cc1ccc(NCC[C@@H](O)[C@@H](CC(C)C)[C@@H](O)c2cc(O)cc(O)c2)c(Cl)c1` the MIC (Salmonella typhimurium) was > 256 µg/mL, the MIC [7] was > 256 µg/mL and the IC50 [1] was 4.12 µM. The MIC (Staphylococcus aureus [2]) was 32 µg/mL (≈ 78.4 µM), the MIC (Staphylococcus aureus [3]) was 16 µg/mL (≈ 39.2 µM) and the MIC (Escherichia coli) was > 256 µg/mL. The Activity (Cell membrane) was “Active”, the MIC (Staphylococcus aureus [8]) was 64 µg/mL (≈ 157 µM) and the MIC (Bacillus cereus) was > 256 µg/mL. The inhibition [6] was 89.2% and the Activity (Staphylococcus aureus [9]) was “Active”.

`CC(C)C[C@H]([C@H](O)C[C@H](O)C#C[C@@H](C)C[C@@H](C)C[C@@H](C)COCc1ccccc1)[C@@H](O)c1cc(O)cc(O)c1` gave an IC50 [1] of 11.4 µM, an MIC (Staphylococcus aureus [2]) of 4 µg/mL (≈ 7.4 µM) and an MIC (Staphylococcus aureus [3]) of 1 µg/mL (≈ 1.85 µM). The Activity (Cell membrane) was “Active”, the inhibition [6] was 77.5% and the Activity (Staphylococcus aureus [9]) was “Active”.

For `CC(C)C[C@H]([C@H](O)CCNc1cccc(C(F)(F)F)c1)[C@@H](O)c1cc(O)cc(O)c1`, the MIC (Salmonella typhimurium) was > 256 µg/mL, the MIC [7] was 64 µg/mL (≈ 150 µM) and the IC50 [1] was 6.12 µM. The MIC (Staphylococcus aureus [2]) was 16 µg/mL (≈ 37.4 µM), the MIC (Staphylococcus aureus [3]) was 8 µg/mL (≈ 18.7 µM) and the MIC (Escherichia coli) was > 256 µg/mL. The Activity (Cell membrane) was “Active”, the MIC (Staphylococcus aureus [8]) was 8 µg/mL (≈ 18.7 µM) and the MIC (Bacillus cereus) was 8 µg/mL (≈ 18.7 µM). The inhibition [6] was 71.1% and the Activity (Staphylococcus aureus [9]) was “Active”.

For `CC(C)C[C@H]([C@H](O)C[C@H](O)C#C[C@@H](C)C[C@H](C)C[C@@H](C)COCc1ccccc1)[C@@H](O)c1cc(O)cc(O)c1`, the MIC (Salmonella typhimurium) was > 256 µg/mL, the MIC [7] was > 256 µg/mL and the IC50 [1] was 5.49 µM. The MIC (Staphylococcus aureus [2]) was 4 µg/mL (≈ 7.4 µM), the MIC (Staphylococcus aureus [3]) was 8 µg/mL (≈ 14.8 µM) and the MIC (Escherichia coli) was > 256 µg/mL. The Activity (Cell membrane) was “Active”, the MIC (Staphylococcus aureus [8]) was 16 µg/mL (≈ 29.6 µM) and the MIC (Bacillus cereus) was > 256 µg/mL. The inhibition [6] was 71.7% and the Activity (Staphylococcus aureus [9]) was “Active”.
